In patent publication US20210369860A1, “FUNCTIONALIZED NANOPARTICLE FORMULATIONS FOR ORAL DRUG DELIVERY” (THE REGENTS OF THE UNIVERSITY OF COLORAD, priority 2018, published 2021):

Details: mouse, in vivo

IR signal in blood after IV injection: no signal was seen
Structure (SMILES): CCCCCCCCCCCCCCCCCCN1C(=CC=CC=CC=CC2=[N+](CCCCCCCCCCCCCCCCCC)c3ccccc3C2(C)C)C(C)(C)c2ccccc21.[I-] [free DIR, 1,1′-Dioctadecyl-3,3,3′,3′-Tetramethylindotricarbo-cyanine Iodide]
